Usually melting point stands for the temperature, or range, at which the solid turns liquid.

With `O=C(Cc1cccc(O)c1)NNC(=O)c1ccc(O)c(Cl)c1` [compound 77], the melting point fell in the range of 230 to 231 °C.

For `Nc1cc(C(=O)NNC(=O)Cc2cccc(O)c2)ccc1O` [compound 78, N′-[2-(3-hydroxyphenyl)acetyl]-3-amino-4-hydroxybenzohydrazide], the melting point was 264 to 265 °C. In the case of `COc1cc(O)cc(Cl)c1C(=O)NNC(=O)Cc1cccc(O)c1` [compound 79] it was 105 to 106 °C; in that of `O=C(Cc1cccc(O)c1)NNC(=O)c1cc(Cl)c(O)cc1O` [compound 80], 269 to 270 °C. `O=C(Cc1cccc(O)c1)NNC(=O)c1ccc(O)c(Cl)c1O` [compound 81] had a melting point of 252 to 253 °C.

The compound `Cc1c(O)ccc(C(=O)NNC(=O)Cc2cccc(O)c2)c1C` [compound 82] displayed a melting point of 251 °C. For the compound `CCCCCc1cc(O)cc(O)c1C(=O)NNC(=O)Cc1cccc(O)c1` [compound 83], the melting point was found to be 230 °C.

`CCc1c(C(=O)NNC(=O)Cc2cccc(O)c2)ccc(O)c1Cl` [compound 84]: the melting point was 259 °C.

Compound `NC(=O)c1cc(C(=O)NNC(=O)Cc2cccc(O)c2)c(O)cc1O` [compound 85] had a melting point of 260 to 261 °C. In the case of `N#Cc1cc(C(=O)NNC(=O)Cc2cccc(O)c2)c(O)cc1O` [compound 86] it was 258 °C; in that of `Cc1cc(C(=O)NNC(=O)Cc2cccc(O)c2)c(O)cc1O` [compound 87], 240 °C; in that of `O=C(Cc1cccc(O)c1)NNC(=O)c1cc(Cl)c(O)cc1C(F)(F)F` [compound 88], 200 to 202 °C.

These data come from patent US7767716B2, “Acyl hydrazines as kinase inhibitors, in particular for SGK” (Merck Patent GmbH, priority 2005, dated 2010).
